Converted amounts (≈) assume the structure as drawn. Read-outs that look alike come from different tables or passages of the source.
Tests used:
physchem [1] = test: physchem
Procedure: The tests were conducted using Sartorius balances (Model SQP) and a potentiometric titrator (Brand: Methrom, Model No. 905 Titrando). 0.17 g of the sample was weighed and transferred into a 50 mL volumetric flask with the remainder of the volume comprising deonized water. The solution was mixed. The solution was titrated with a 0.1 mol/L NaOH solution using a pH indicator to indicate the end point.

physchem [2] = details: water; for Solubility: 25±2° C.
Procedure: The tests were conducted using Sartorius balances (Model SQP), a Thermo HPLC (UltiMate 3000 System, UV Wavelength: 205 nm), and Phenomenex Luna columns (5 μm C18 (2), 4.6×250 mm). The column temperature was 40° C. and the autosampler temperature was room temperature. The injection volume was 5 μL.
(§1) Mobile Phase A was prepared by weighing 4.0 g tetramethylammonium bisulfate (MERYER, Batch No. 77957139) and 1.1 sodium 1-heptasulfonate (Admas-beta, Batch No. P1343755), and transferring the materials to a flask. 2 mL of 0.1 mol/L EDTA solution (Brand: Sinopharm Chemical Reagent Co., Ltd., Batch No. 20150410) was added to the flask and the volume was adjusted to 950 mL using water. The solution was mixed and adjusted to a pH of 3.5 with 0.1N sodium hydroxide solution (Brand: Enox, Batch No. 20161201). Mobile Phase B was prepared using ethanol. The isocratic elution was used in a proportion of A/B of 85/15. The run time was 8 minutes.
A standard solution was used comprising 10 mg of the standard dissolved in 10 mL of water. The test solution solutions were prepared and water was added at 25±2° C. Every 5 minutes, the solution was sonicated for 30 seconds. The dissolution was observed within 30 minutes to make sure the solution was saturated. The solution was filtered through a 0.45 μm membrane and the solution was diluted to test.

[3] = sublingual tablet of Example 3, 10 mg epinephrine base, receptor pH 7.4, 37° C.
Procedure: The in-vitro permeability of the pharmaceutical compositions of Example 3 were tested. The tests were conducted using drug transdermal diffusion test instruments (Brand Huanghai, Model No. RJY-6B), Sartorius balances (Model SQP), an INESA pH meter (Model PHS-3E), a Thermo HPLC (UltiMate 3000 System, UV Wavelength: 205 nm), and Phenomenex Luna columns (5 μm C18 (2), 4.6×250 mm). The column temperature was 40° C. and the autosampler temperature was room temperature. The injection volume was 5 μL.
as §1, with “using methanol.” for “using ethanol.”, “was 10” for “was 8”
The in vitro diffusion of epinephrine salts were evaluated using Franz cells with an OD of 20 mm and reservoir volume of 7 mL. Dialysis membranes (Spectra/Por® dialysis membranes with 1,000 Da MWCO) were used to simulate sublingual mucous membrane in the vitro permeability tests. The assay content of the active components was detected in receiving pools. A receptor chamber with a magnetic stirrer was filled with phosphate buffer solution (pH 7.4) as the diffusion medium. The water bath was set at 37° C., and water was circulated in the Franz cells.
Each tablet was placed at the center of the donor chamber on the membrane at T0, and 2 mL of the artificial saliva (Brand: Biomart, Brand No. GL0305) was added to facilitate tablet disintegration and dissolution. Aliquots of 1 mL were withdrawn from the receptor chamber at 10, 30, 60, 90, and 120 min. The volumes withdrawn were replenished with fresh medium. Samples were transferred to HPLC vials for HPLC analysis.

[4] = water, 25° C.
Procedure: The sample was dissolved and diluted to the volume with water and mixed well. The sample was left in an oven at 25° C., and samples were collected at 0 hours, 24 hours, 48 hours, 72 hours, 96 hours, and 120 hours. The diluent (mobile phase) used for the study was prepared by mixing about 1.36 g of potassium dihydrogen orthophosphate and 1.74 g of dipotassium hydrogen orthophosphate in a 1000 mL volumetric flask, and adjusting the pH to 3.0 with orthophosphoric acid. The appearance and purity of the samples were tested.

[5] = 20 mg in 20 mL water, 25° C.
Procedure: The tests were conducted using Sartorius balances (Model SQP) and a pH meter (Brand: INESA, Model No. PHS-3E). 20 mg of the sample was weighed and transferred into a 20 mL volumetric flask with the remainder of the volume comprising water. The solution was mixed. The pH meter was calibrated with pH 4.0 and pH 6.8 standard buffer solutions at 25° C.

| Molecule | pKa (physchem [1]; deionized water) | solubility at 30 min (physchem [2]; 25 °C, thermodynamic from solid) | Diffusion content (%) 120 min [3] | pKa (physchem [1]; titrated with 0.1 mol/L NaOH) | Solubility (physchem [2]) | Appearance ([4]; 0 hours) | Purity ([4]; 0 hours) | Appearance ([4]; 24 hours) | Purity ([4]; 24 hours) | Appearance ([4]; 48 hours) | Purity ([4]; 48 hours) | Appearance ([4]; 72 hours) | Purity ([4]; 72 hours) | Appearance ([4]; 96 hours) | Purity ([4]; 96 hours) | Appearance ([4]; 120 hours) | Purity ([4]; 120 hours) | pH [5] |
| --- | --- | --- | --- | --- | --- | --- | --- | --- | --- | --- | --- | --- | --- | --- | --- | --- | --- | --- |
| CNC[C@H](O)c1ccc(O)c(O)c1 [epinephrine bitartrate] | 4.2 | 827 mg/mL | 67.8% | – | – | – | – | – | – | – | – | – | – | – | – | – | – | – |
| CNC[C@H](O)c1ccc(O)c(O)c1 [epinephrine malonate] | – | – | 57.5% | 5.47 | 1142.7 mg/mL (≈ 6240 mM) | Colorless liquid | 99.97% | Colorless liquid | 99.79% | Colorless liquid | 99.63% | Colorless liquid | 99.51% | Colorless liquid | 99.42% | Colorless liquid | 99.34% | – |
| epinephrine maleate | – | – | 63.5% | 6.12 | 82.7 mg/mL | – | – | – | – | – | – | – | – | – | – | – | – | 4.48 |
